Measurements as given in patent publication US20100022542A1, “COMPOUNDS EXHIBITING THROMBOPOIETIN RECEPTOR AGONISM” (Shionogi & Co., Ltd., priority 2000, published 2010).

Target: T1, human TPO receptor (hTPOR) (Homo sapiens, UniProt P40238)
T1 construct: expressed in transfected cells; host or cells: BaF-B03 (murine IL-3 dependent cell line)
T1 sequence (P40238 26-635): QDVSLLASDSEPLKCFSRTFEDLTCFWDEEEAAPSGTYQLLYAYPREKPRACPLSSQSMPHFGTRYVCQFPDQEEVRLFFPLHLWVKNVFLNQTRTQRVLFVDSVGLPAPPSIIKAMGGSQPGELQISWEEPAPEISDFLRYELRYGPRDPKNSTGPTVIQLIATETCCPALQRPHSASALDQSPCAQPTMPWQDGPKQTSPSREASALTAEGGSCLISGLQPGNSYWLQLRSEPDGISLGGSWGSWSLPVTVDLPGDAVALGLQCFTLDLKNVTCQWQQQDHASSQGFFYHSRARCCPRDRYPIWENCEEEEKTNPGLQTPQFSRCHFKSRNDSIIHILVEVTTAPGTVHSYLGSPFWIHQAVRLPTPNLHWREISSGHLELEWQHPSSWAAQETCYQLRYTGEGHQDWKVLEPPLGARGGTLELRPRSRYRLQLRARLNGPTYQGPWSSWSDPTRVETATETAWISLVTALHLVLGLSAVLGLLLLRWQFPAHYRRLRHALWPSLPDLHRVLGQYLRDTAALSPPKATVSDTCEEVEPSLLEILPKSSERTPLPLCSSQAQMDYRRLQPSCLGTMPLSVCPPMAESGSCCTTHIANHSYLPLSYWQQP
Assay: Proliferation of TPO dependent BaF/hTPOR cells, WST-1, thrombopoietic activity ED50 (Test Example 3)
Format: cell-based
Conditions: 20 h incubation then WST-1 4 h, absorbance at 450 nm
Text: FIG. 2: The chart represents proliferation of the human TPO dependent cells bearing human TPO receptors by the present invention compound, wherein the x-axis is concentration of the present invention compound, and the y-axis is the absorbance as an indicator of cell proliferation. Open circles indicate a response of human TPO, and closed circles indicate a response of the compound (B-1).
The TPO dependent BaF/hTPOR cell line which was established by introducing human TPO receptor (hTPOR) into BaF-B03 cells according to Collins et al (J. Cell. Physiol., 137:293-298 (1988)) was used to test the thrombopoietic activity of the present compound. The DNA sequences and encoded peptide sequences for human hTPOR have been described by Vigon et al (Proc. Natl. Acad. Sci. USA, 89:5640-5644 (1992)). TPO dose not have any ability to support proliferation of interleukin-3 dependent parental cell line BaF-B03. BAF/hTPOR cells were maintained in RPMI medium and WEHI-3B conditioned medium as a source of murine interleukin-3 (IL-3). These cells were washed and resuspended in RPMI medium without a source of murine IL-3 and seeded into each well of 96-well microtiter plates at a density of 5×10^4 cells per well in the absence or presence of various concentration of hTPO or the present compound. After incubation at 37° C. for 20 hours in the 5% CO2 incubator, 10% WST-1 reagent (Takara Biomedicals, Japan) was added to each wells and the cells were further incubated for 4 hours. Effect of the present compound on the growth of BAF/mTPOR cell line which was established by introducing murine TPO receptor (mTPOR) into BAF-B03 cells is shown in FIG. 3. Table 8 exemplifies the ED50 for tested compounds of the present invention, wherein the ED50 is the half concentration of the concentration showing the maximum thrombopoietic activity.

Row | SMILES | EC50
1 | O=C(O)/C(Cl)=C/c1ccc(C(=O)Nc2nc(-c3ccc(OC(F)(F)F)cc3)cs2)cc1 [Compound A-76] | 205 nM
2 | O=C(O)/C(Cl)=C/c1ccc(C(=O)Nc2nc(-c3cc(F)c(F)c(F)c3F)cs2)cc1 [Compound A-77] | 110 nM
3 | CSc1ccc(-c2csc(NC(=O)c3ccc(/C=C(\Cl)C(=O)O)cc3)n2)cc1 [Compound A-78] | 408 nM
4 | O=C(O)/C(Cl)=C/c1ccc(C(=O)Nc2nc(-c3cc(C(F)(F)F)ccc3F)cs2)cc1 [Compound A-79] | 410 nM
5 | O=C(O)/C(Cl)=C/c1ccc(C(=O)Nc2nc(-c3cccc(-c4ccccc4)c3F)cs2)cc1 [Compound A-80] | 66 nM
6 | O=C(O)/C(Cl)=C/c1ccc(C(=O)Nc2nc(-c3cccc(Br)c3F)cs2)cc1 [Compound A-81] | 71 nM
7 | COc1cccc(-c2csc(NC(=O)c3ccc(/C=C(\Cl)C(=O)O)cc3)n2)c1F [Compound A-82] | 199 nM
8 | Cc1cccc(-c2csc(NC(=O)c3ccc(/C=C(\Cl)C(=O)O)cc3)n2)c1F [Compound A-83] | 77 nM
9 | CCCCCc1cccc(-c2csc(NC(=O)c3ccc(/C=C(\Cl)C(=O)O)cc3)n2)c1F [Compound A-84] | 23 nM
10 | O=C(O)/C(Cl)=C/c1ccc(C(=O)Nc2nc(-c3ccc(F)c(Br)c3F)cs2)cc1 [Compound A-86] | 243 nM
11 | Cc1ccc(C)c(-c2csc(NC(=O)c3ccc(/C=C(\Cl)C(=O)O)cc3)n2)c1 [Compound A-87] | 710 nM
12 | O=C(O)/C(Cl)=C/c1ccc(C(=O)Nc2nc(-c3cccc(-c4ccc(F)cc4)c3F)cs2)cc1 [Compound A-88] | 28 nM
13 | O=C(O)/C(Cl)=C/c1ccc(C(=O)Nc2nc(-c3ccc(F)c(-c4ccccc4)c3F)cs2)cc1 [Compound A-89] | 72 nM
14 | O=C(O)/C(Cl)=C/c1ccc(C(=O)Nc2nc(-c3cccc(Cl)c3Cl)cs2)cc1 [Compound A-91] | 76 nM
15 | CCCCCCc1cccc(-c2csc(NC(=O)c3ccc(/C=C(\Cl)C(=O)O)cc3)n2)c1F [Compound A-93] | 8 nM
16 | NC(=O)/C=C/c1ccc(C(=O)Nc2nc(-c3ccc(Cl)c(Cl)c3)cs2)cc1 [Compound B-2] | 257 nM
17 | CNC(=O)/C=C/c1ccc(C(=O)Nc2nc(-c3ccc(Cl)c(Cl)c3)cs2)cc1 [Compound B-3] | 156 nM
18 | CNC(=O)C(C)=Cc1ccc(C(=O)Nc2nc(-c3ccc(Cl)c(Cl)c3)cs2)cc1 [Compound B-4] | 89 nM
19 | CC(=Cc1ccc(C(=O)Nc2nc(-c3ccc(Cl)c(Cl)c3)cs2)cc1)C(=O)N(C)C [Compound B-5] | 123 nM
20 | CCNC(=O)C(C)=Cc1ccc(C(=O)Nc2nc(-c3ccc(Cl)c(Cl)c3)cs2)cc1 [Compound B-6] | 84 nM

Row | SMILES | EC50
21 | CCCNC(=O)C(C)=Cc1ccc(C(=O)Nc2nc(-c3ccc(Cl)c(Cl)c3)cs2)cc1 [Compound B-7] | 59 nM
22 | CC(=Cc1ccc(C(=O)Nc2nc(-c3ccc(Cl)c(Cl)c3)cs2)cc1)C(=O)N1CCOCC1 [Compound B-8] | 378 nM
23 | C/C(=C\c1ccc(C(=O)Nc2nc(-c3ccc(Cl)c(Cl)c3)cs2)cc1)C(=O)NCc1ccccc1 [Compound B-9] | 82 nM
24 | C/C(=C\c1ccc(C(=O)Nc2nc(-c3ccc(Cl)c(Cl)c3)cs2)cc1)C(=O)Nc1nccs1 [Compound B-11] | 236 nM
25 | C/C(=C\c1ccc(C(=O)Nc2nc(-c3ccc(Cl)c(Cl)c3)cs2)cc1)C(=O)Nc1cccnc1 [Compound B-12] | 207 nM
26 | C/C(=C\c1ccc(C(=O)Nc2nc(-c3ccc(Cl)c(Cl)c3)cs2)cc1)C(=O)NCc1ccc(C(F)(F)F)cc1 [Compound B-13] | 213 nM
27 | C/C(=C\c1ccc(C(=O)Nc2nc(-c3ccc(Cl)c(Cl)c3)cs2)cc1)C(=O)NCc1ccc(F)cc1 [Compound B-14] | 305 nM
28 | C/C(=C\c1ccc(C(=O)Nc2nc(-c3ccc(Cl)c(Cl)c3)cs2)cc1)C(=O)NCc1cccs1 [Compound B-15] | 197 nM
29 | C/C(=C\c1ccc(C(=O)Nc2nc(-c3ccc(Cl)c(Cl)c3)cs2)cc1)C(=O)NCc1ccco1 [Compound B-16] | 182 nM
30 | CC/C(=C\c1ccc(C(=O)Nc2nc(-c3ccc(Cl)c(Cl)c3)cs2)cc1)C(N)=O [Compound B-17] | 244 nM
31 | CC/C(=C\c1ccc(C(=O)Nc2nc(-c3ccc(Cl)c(Cl)c3)cs2)cc1)C(=O)NC [Compound B-18] | 150 nM
32 | CCNC(=O)/C(=C/c1ccc(C(=O)Nc2nc(-c3ccc(Cl)c(Cl)c3)cs2)cc1)CC [Compound B-19] | 150 nM
33 | CC/C(=C\c1ccc(C(=O)Nc2nc(-c3ccc(Cl)c(Cl)c3)cs2)cc1)C(=O)NCc1ccccc1 [Compound B-20] | 425 nM
34 | C/C(=C\c1ccc(C(=O)Nc2nc(-c3ccc(F)c(F)c3)cs2)cc1)C(N)=O [Compound B-25] | 367 nM
35 | CNC(=O)/C(C)=C/c1ccc(C(=O)Nc2nc(-c3ccc(F)c(F)c3)cs2)cc1 [Compound B-26] | 346 nM
36 | C/C(=C\c1ccc(C(=O)Nc2nc(-c3ccc(Cl)c(Cl)c3)cs2)cc1)C(=O)NCCN(C)C [Compound B-27] | 707 nM
37 | C/C(=C\c1ccc(C(=O)Nc2nc(-c3ccc(Cl)c(Cl)c3)cs2)cc1)C(=O)NCCC(=O)O [Compound B-28] | 565 nM
38 | C/C(=C\c1ccc(C(=O)Nc2nc(-c3ccc(Cl)c(Cl)c3)cs2)cc1)C(=O)NN(C)C [Compound B-29] | 181 nM
39 | C/C(=C\c1ccc(C(=O)Nc2nc(-c3ccc(Cl)c(Cl)c3)cs2)cc1)C(=O)Nc1ccccc1 [Compound B-30] | 177 nM
40 | C/C(=C\c1ccc(C(=O)Nc2nc(-c3ccc(Cl)c(Cl)c3)cs2)cc1)C(=O)NCC(F)(F)F [Compound B-31] | 178 nM

Row | SMILES | EC50
41 | CSCCCNC(=O)/C(C)=C/c1ccc(C(=O)Nc2nc(-c3ccc(Cl)c(Cl)c3)cs2)cc1 [Compound B-32] | 123 nM
42 | C/C(=C\c1ccc(C(=O)Nc2nc(-c3ccc(Cl)c(Cl)c3)cs2)cc1)C(=O)NC(C)c1ccccc1 (stereo not shown) [Compound B-33] | 372 nM
43 | C/C(=C\c1ccc(C(=O)Nc2nc(-c3ccc(Cl)c(Cl)c3)cs2)cc1)C(=O)NC[Si](C)(C)C [Compound B-34] | 398 nM
44 | C/C(=C\c1ccc(C(=O)Nc2nc(-c3ccc(Cl)c(Cl)c3)cs2)cc1)C(=O)NC1CC1 [Compound B-36] | 163 nM
45 | C/C(=C\c1ccc(C(=O)Nc2nc(-c3ccc(Cl)c(Cl)c3)cs2)cc1)C(=O)NC1CCCC1 [Compound B-38] | 239 nM
46 | C/C(=C\c1ccc(C(=O)Nc2nc(-c3ccc(Cl)c(Cl)c3)cs2)cc1)C(=O)NC(C)(C)C [Compound B-39] | 729 nM
47 | C#CCNC(=O)/C(C)=C/c1ccc(C(=O)Nc2nc(-c3ccc(Cl)c(Cl)c3)cs2)cc1 [Compound B-40] | 201 nM
48 | C=CCNC(=O)/C(C)=C/c1ccc(C(=O)Nc2nc(-c3ccc(Cl)c(Cl)c3)cs2)cc1 [Compound B-41] | 190 nM
49 | COCCNC(=O)/C(C)=C/c1ccc(C(=O)Nc2nc(-c3ccc(Cl)c(Cl)c3)cs2)cc1 [Compound B-42] | 236 nM
50 | CC(=O)NNC(=O)/C(C)=C/c1ccc(C(=O)Nc2nc(-c3ccc(Cl)c(Cl)c3)cs2)cc1 [Compound B-43] | 303 nM
51 | CONC(=O)/C(C)=C/c1ccc(C(=O)Nc2nc(-c3ccc(Cl)c(Cl)c3)cs2)cc1 [Compound B-46] | 213 nM
52 | O=C(O)C(Br)=Cc1ccc(C(=O)Nc2nc(-c3ccc(Cl)c(Cl)c3)cs2)cc1 [Compound C-4] | 922 nM
53 | CC(=Cc1ccc(C(=O)Nc2nc(-c3ccc(Cl)c(Cl)c3)cs2)cc1)c1ncc[nH]1 [Compound D-1] | 276 nM
54 | CC(=Cc1ccc(C(=O)Nc2nc(-c3ccc(Cl)c(Cl)c3)cs2)cc1)S(=O)(=O)N(C)C [Compound F-1] | 174 nM
55 | CC(=Cc1ccc(C(=O)Nc2nc(-c3ccc(Cl)c(Cl)c3)cs2)cc1)S(=O)(=O)NC(C)(C)C [Compound F-2] | 144 nM
56 | CC(=Cc1ccc(C(=O)Nc2nc(-c3ccc(Cl)c(Cl)c3)cs2)cc1)S(N)(=O)=O [Compound F-3] | 198 nM
57 | COC(=O)CCc1ccc(C(=O)Nc2nc(-c3ccc(Cl)c(Cl)c3)cs2)cc1 [Compound G-1] | 261 nM
58 | O=C(O)CCc1ccc(C(=O)Nc2nc(-c3ccc(Cl)c(Cl)c3)cs2)cc1 [Compound G-2] | 299 nM
